Source: patent publication US20240317777A1, “NOVEL MACROCYCLIC AMINOPYRAZOLE COMPOUNDS AS CDK2 INHIBITORS” (Accutar Biotechnology Inc., priority 2023, published 2024)
Like-named read-outs stand apart in the source and are kept apart here.

Legend:
[1] = target: CDK2-CYCLIN E1 (Homo sapiens, UniProt P24941); experiment: CDK protein kinase inhibition by ADP-Glo assay, CDK2-CYCLIN E1; assay type: biochemical; settings: read-out: CDK2-CYCLINE, IC50
Protocol: (§1) CDK Protein Kinase Inhibition by ADP-Glo Assay
(§2) This ADP-Glo assay measures ADP formed from a kinase reaction and indirectly quantifies the phosphorylation of peptide substrates by the CDK/cyclin protein complexes. The typical assays were carried out in Nanosyn by combining kinase/cyclin complexes, substrates, compounds, and cofactors (ATP and Mg2+) in a well of a 384-well microtiter plate (Corning 3824) and incubating at 22° C. (Table 1). At the end of the incubation, the reaction is quenched, and conversion is detected by luminescence using the Promega ADP-Glo™ Kinase Assay kit (catalog #V9102).
(§3) Final assay buffer mixture contains: • 100 mM HEPES, pH 7.5 • 0.1% BSA • 0.01% Triton X-100 • 1 mM DTT • 5 mM MgCl2 • 10 μM Sodium Orthovanadate • 100 μM Beta-Glycerophosphate • 1000 μM Ultra Pure ATP (provided in the Promega ADP-Glo™ Kinase Assay kit) • 1% DMSO (from compound)
(§4) Upon completion, 5 μL of the ADP Glo reagent was added to each well and the plate was further incubated at room temperature for 45 minutes. 10 uL of the Kinase Detection Reagent was subsequently added to each well. After 10 minutes of incubation, the plate was read and analyzed on the BioTek Synergy microplate reader using BioTek Gen5 software.

[2] = system: CCNE1-amplified OVCAR3 cells; experiment: Cell growth inhibition of CCNE1-amplified OVCAR3 cells (CellTiter-Glo); assay type: cell-based; settings: Homo sapiens, OVCAR-3, 144 h, 6 days
In short: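 Growth read-out was CellTiter-Glo luminescence, taken after 10 min at room temperature at the end of a 6-day compound exposure at 37 °C. Compounds were diluted from DMSO stocks across various concentrations.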

[3] = target: CDK6-CYCLIN D3 (Homo sapiens, UniProt Q00534); experiment: CDK protein kinase inhibition by ADP-Glo assay, CDK6-CYCLIN D3; assay type: biochemical; settings: for IC50: read-out: CDK6-CYCLIND3, IC50; for CDK2 Fold selectivity against CDK6: fold selectivity for CDK2 over CDK6, recombinant CDK kinases
Protocol: as §1, §2, §3, §4

[4] = target: CDK1-CYCLIN B (Homo sapiens, UniProt P06493); experiment: CDK protein kinase inhibition by ADP-Glo assay, CDK1-CYCLIN B; assay type: biochemical; settings: for IC50: read-out: CDK1-CYCLINB, IC50; for CDK2 Fold selectivity against CDK1: fold selectivity for CDK2 over CDK1, recombinant CDK kinases
Protocol: as §1, §2, §3, §4

[5] = target: CDK9-CYCLIN T1 (Homo sapiens, UniProt P50750); experiment: CDK protein kinase inhibition by ADP-Glo assay, CDK9-CYCLIN T1; assay type: biochemical; settings: for CDK2 Fold selectivity against CDK9: fold selectivity for CDK2 over CDK9, recombinant CDK kinases
Protocol: as §1, §2, §3, §4

[6] = system: Phospho-Rb (Ser807/811) in OVCAR3 cells; experiment: Phospho-Rb expression inhibition in OVCAR3 cells quantified by In Cell Western; assay type: cell-based; settings: Homo sapiens, OVCAR-3, 24 hours, read-out: OVCAR-3 pRb IC50
In short: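 In-cell western: after 24 h compound exposure at 37° C, fixed OVCAR3 cells co-stained for pRb Ser807/811 (800 nm channel) and total Rb (680 nm channel), imaged by LI-COR Odyssey.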

[7] = target: CDK4-CYCLIN D1 (Homo sapiens, UniProt P11802); experiment: CDK protein kinase inhibition by ADP-Glo assay, CDK4-CYCLIN D1; assay type: biochemical; settings: for IC50: read-out: CDK4-CYCLIND1, IC50; for CDK2 Fold selectivity against CDK4: fold selectivity for CDK2 over CDK4, recombinant CDK kinases
Protocol: as §1, §2, §3, §4

[8] = system: CCNE1-normal SKOV3 cells; experiment: Cell growth inhibition of CCNE1-normal SKOV3 cells (CellTiter-Glo); assay type: cell-based; settings: Homo sapiens, SK-OV-3, 144 h, 6 days
Protocol: Cell Growth Inhibition of CCNE1-Normal SKOV3 Cells
SKOV3 cells were obtained from American Type Culture Collection (ATCC, HTB-77). SKOV3 cells were seeded in 96-well plates at 1000 cells/well in 90 μl of RPM11640 growth medium containing 10% FBS and 1% Penicillin Streptomycin, and then incubated at 37° C. overnight. The following day, the test compound was administered to the cells by using 1000× compound stock solution prepared in DMSO at various concentrations. 1000× compound stock solution was first diluted in culturing medium to 10x, then 10 uL compound medium was added to each well in the cell plates. After administration of the compound, the cells were then incubated at 37° C. for 6 days. Upon completion, the plates were equilibrated at room temperature for approximately 10 minutes. 100 ul of CellTiter-Glo® Reagent (Promega) was added to each well. The plates were then incubated at room temperature for 10 minutes and luminescence was recorded by EnSpire plate reader (PerkinElmer).

[9] = Table 35, recombinant CDK kinase
[10] = Table 35, recombinant CDK kinase, read-out: CDK9-CYCLINT1, IC50
[11] = Table 37, recombinant CDK kinase

Sequence of CDK4-CYCLIN D1 (P11802 whole entry): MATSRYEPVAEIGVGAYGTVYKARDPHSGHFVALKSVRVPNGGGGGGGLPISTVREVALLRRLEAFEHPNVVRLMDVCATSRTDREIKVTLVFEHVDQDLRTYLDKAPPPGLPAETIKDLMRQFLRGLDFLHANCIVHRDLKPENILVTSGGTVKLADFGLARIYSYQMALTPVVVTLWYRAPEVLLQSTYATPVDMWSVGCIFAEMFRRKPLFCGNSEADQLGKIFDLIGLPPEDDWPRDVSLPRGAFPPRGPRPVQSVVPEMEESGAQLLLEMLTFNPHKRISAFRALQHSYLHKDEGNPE
Sequence of CDK4-CYCLIN D1 (P24385 whole entry partner): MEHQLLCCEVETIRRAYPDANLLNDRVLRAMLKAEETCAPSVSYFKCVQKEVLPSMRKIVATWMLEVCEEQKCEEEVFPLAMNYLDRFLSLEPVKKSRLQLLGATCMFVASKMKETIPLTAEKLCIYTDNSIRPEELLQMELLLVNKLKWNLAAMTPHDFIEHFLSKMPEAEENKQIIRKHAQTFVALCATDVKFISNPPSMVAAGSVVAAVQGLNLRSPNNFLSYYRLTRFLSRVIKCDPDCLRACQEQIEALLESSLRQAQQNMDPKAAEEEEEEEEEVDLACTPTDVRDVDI
Sequence of CDK6-CYCLIN D3 (Q00534 whole entry): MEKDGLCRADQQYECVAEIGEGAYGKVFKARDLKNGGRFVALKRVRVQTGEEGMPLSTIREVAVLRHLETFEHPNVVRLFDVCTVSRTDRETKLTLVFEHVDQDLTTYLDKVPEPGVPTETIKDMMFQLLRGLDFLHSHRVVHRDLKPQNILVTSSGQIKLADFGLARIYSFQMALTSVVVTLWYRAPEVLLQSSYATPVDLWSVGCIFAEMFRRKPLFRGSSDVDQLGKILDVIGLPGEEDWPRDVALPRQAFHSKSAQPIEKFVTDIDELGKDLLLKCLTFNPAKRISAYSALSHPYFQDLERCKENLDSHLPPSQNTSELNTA
Sequence of CDK6-CYCLIN D3 (P30281 whole entry partner): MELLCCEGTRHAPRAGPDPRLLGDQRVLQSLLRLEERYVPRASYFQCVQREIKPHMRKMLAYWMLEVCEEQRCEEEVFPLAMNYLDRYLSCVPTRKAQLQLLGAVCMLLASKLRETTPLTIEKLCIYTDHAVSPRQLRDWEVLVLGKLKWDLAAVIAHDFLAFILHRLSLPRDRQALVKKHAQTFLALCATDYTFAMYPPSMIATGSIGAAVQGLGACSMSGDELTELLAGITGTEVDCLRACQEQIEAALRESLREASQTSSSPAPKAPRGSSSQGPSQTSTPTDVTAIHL
Sequence of CDK9-CYCLIN T1 (P50750 whole entry): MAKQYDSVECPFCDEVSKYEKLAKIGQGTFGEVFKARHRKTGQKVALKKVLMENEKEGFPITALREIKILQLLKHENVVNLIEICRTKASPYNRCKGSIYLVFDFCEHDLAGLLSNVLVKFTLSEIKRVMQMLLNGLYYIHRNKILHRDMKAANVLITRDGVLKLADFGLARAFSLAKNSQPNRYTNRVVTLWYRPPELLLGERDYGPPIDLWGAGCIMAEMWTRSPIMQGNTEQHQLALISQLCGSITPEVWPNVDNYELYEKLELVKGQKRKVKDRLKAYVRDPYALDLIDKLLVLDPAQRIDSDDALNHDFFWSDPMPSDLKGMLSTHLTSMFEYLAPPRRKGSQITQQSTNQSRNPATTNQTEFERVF
Sequence of CDK9-CYCLIN T1 (O60563 whole entry partner): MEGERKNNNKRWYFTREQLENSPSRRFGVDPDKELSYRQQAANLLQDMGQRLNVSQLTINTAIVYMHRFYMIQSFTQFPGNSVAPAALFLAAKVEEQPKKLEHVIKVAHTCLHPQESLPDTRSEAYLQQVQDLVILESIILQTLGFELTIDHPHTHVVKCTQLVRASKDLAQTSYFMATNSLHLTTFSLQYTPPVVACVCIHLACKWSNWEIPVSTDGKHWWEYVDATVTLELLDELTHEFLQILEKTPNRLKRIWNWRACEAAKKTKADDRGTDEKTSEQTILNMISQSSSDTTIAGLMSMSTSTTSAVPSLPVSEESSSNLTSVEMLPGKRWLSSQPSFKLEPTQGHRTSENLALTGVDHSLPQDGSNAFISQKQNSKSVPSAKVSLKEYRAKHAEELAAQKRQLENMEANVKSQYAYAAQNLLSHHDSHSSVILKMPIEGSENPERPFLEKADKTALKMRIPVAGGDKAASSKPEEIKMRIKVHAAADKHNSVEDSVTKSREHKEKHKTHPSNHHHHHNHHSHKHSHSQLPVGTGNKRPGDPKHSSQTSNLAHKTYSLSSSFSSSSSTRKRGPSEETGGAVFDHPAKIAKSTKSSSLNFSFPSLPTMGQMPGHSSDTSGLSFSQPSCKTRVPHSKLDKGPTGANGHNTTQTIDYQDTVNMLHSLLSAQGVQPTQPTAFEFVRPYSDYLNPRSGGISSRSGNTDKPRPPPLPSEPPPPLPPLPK
Sequence of CDK1-CYCLIN B (P06493 whole entry): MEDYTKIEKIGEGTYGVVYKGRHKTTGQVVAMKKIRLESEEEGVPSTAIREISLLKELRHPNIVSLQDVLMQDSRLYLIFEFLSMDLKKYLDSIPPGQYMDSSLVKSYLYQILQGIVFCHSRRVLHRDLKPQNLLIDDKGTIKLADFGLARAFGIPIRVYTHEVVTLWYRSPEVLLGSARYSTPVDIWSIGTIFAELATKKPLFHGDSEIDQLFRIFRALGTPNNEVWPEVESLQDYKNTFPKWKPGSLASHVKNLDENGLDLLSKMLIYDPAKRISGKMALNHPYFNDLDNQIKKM
Sequence of CDK1-CYCLIN B (P14635 whole entry partner): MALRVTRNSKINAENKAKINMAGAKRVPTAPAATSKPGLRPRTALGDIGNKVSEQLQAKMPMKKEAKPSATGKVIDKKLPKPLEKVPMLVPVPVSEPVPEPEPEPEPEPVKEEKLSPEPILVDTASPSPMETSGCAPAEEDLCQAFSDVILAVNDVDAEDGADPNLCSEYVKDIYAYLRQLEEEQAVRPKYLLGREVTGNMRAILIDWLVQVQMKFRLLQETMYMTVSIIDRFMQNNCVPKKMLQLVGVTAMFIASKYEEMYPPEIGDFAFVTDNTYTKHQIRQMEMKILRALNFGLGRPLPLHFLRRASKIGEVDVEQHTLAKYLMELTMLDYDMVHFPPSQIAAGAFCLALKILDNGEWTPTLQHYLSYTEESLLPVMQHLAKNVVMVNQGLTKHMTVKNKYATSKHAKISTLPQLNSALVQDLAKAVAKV

SMILES	IC50 [2] [nM]	IC50 [6] [nM]	IC50 [8] [nM]	also measured
[2H]C1([2H])Oc2cc(ccn2)Nc2cc(n[nH]2)[C@H]2CC[C@H](C2)OC(=O)N[C@H]2C[C@H]1C2 [Compound 177, (1^1S,1^3R,7^1R,7^3S,Z)-2^1H-5,10-dioxa-3,8-diaza-4(4,2)-pyridina-2(3,5)-pyrazola-1(1,3)-cyclopentana-7(1,3)-cyclobutanacyclodecaphan-9-one-6,6-d2]	10 to 50	2 to 10	–	IC50 ([1]; ADP-Glo, 1000 μM ATP, Table 27): ≤ 10 nM; IC50 [1, 9]: ≤ 10 nM; IC50 ([3]; ADP-Glo, 1000 μM ATP, Table 27): 100 to 500 nM; CDK2 Fold selectivity, CDK6 ([3]; CDK2 versus CDK6, Table 28): D (D, >20 and ≤50); IC50 [3, 9]: 10 to 50 nM; CDK2 Fold selectivity against CDK6 ([3]; Table 36): E (E, <20); IC50 ([4]; ADP-Glo, 1000 μM ATP, Table 27): 10 to 50 nM; CDK2 Fold selectivity, CDK1 ([4]; CDK2 versus CDK1, Table 28): E (E, <20); IC50 [4, 9]: 10 to 50 nM; CDK2 Fold selectivity against CDK1 ([4]; Table 36): E (E, <20); IC50 ([5]; ADP-Glo, 1000 μM ATP, Table 27, read-out: CDK9-CYCLINT1 IC50): 100 to 500 nM; CDK2 Fold selectivity, CDK9 ([5]; CDK2 versus CDK9, Table 28): D (D, >20 and ≤50); IC50 [5, 10]: 50 to 100 nM; CDK2 Fold selectivity against CDK9 ([5]; Table 36): D (D, >20 and ≤50); IC50 ([7]; ADP-Glo, 1000 μM ATP, Table 27): 50 to 100 nM; CDK2 Fold selectivity, CDK4 ([7]; CDK2 versus CDK4, Table 28): D (D, >20 and ≤50); IC50 [7, 9]: 10 to 50 nM; CDK2 Fold selectivity against CDK4 ([7]; Table 36): E (E, <20)
C[C@@H]1NC(=O)O[C@@H]2CC[C@@H](C2)c2cc([nH]n2)Nc2cncc(c2)OCCC1(F)F [Compound 190, (1^1S,1^3R,9S,Z)-8,8-difluoro-9-methyl-2^1H-5,12-dioxa-3,10-diaza-4(3,5)-pyridina-2(3,5)-pyrazola-1(1,3)-cyclopentanacyclododecaphan-11-one]	10 to 50	2 to 10	250 to 1250	–
C[C@@H]1NC(=O)O[C@@H]2CC[C@@H](C2)c2cc([nH]n2)Nc2cnnc(c2)OCCC1(F)F [Compound 218, (1^1S,1^3R,9S,Z)-8,8-difluoro-9-methyl-2^1H-5,12-dioxa-3,10-diaza-4(5,3)-pyridazina-2(3,5)-pyrazola-1(1,3)-cyclopentanacyclododecaphan-11-one]	> 250	10 to 50	> 1250	–
C[C@@H]1NC(=O)O[C@@H]2CC[C@@H](C2)c2cc([nH]n2)Nc2cncc(n2)OCCC1(F)F [Compound 219, (1^1S,1^3R,9S,Z)-8,8-difluoro-9-methyl-2^1H-5,12-dioxa-3,10-diaza-4(2,6)-pyrazina-2(3,5)-pyrazola-1(1,3)-cyclopentanacyclododecaphan-11-one]	≤ 2	≤ 2	10 to 50	–
C[C@H]1NC(=O)O[C@@H]2CC[C@@H](C2)c2cc([nH]n2)Nc2ccnc(c2)OCCC1(F)F [Compound 220, (1^1S,1^3R,9R,Z)-8,8-difluoro-9-methyl-2^1H-5,12-dioxa-3,10-diaza-4(4,2)-pyridina-2(3,5)-pyrazola-1(1,3)-cyclopentanacyclododecaphan-11-one]	10 to 50	2 to 10	250 to 1250	–
[2H]C1([2H])Oc2cc(ccn2)Nc2[nH]nc(c2F)[C@H]2CC[C@H](C2)OC(=O)N[C@H]2C[C@H]1C2 [Compound 221, (1^1S,1^3R,7^1R,7^3S,E)-24-fluoro-2^1H-5,10-dioxa-3,8-diaza-4(4,2)-pyridina-2(3,5)-pyrazola-1(1,3)-cyclopentana-7(1,3)-cyclobutanacyclodecaphan-9-one-6,6-d2]	10 to 50	10 to 50	–	IC50 [1, 9]: ≤ 10 nM; IC50 [3, 9]: 100 to 500 nM; CDK2 Fold selectivity against CDK6 ([3]; Table 36): C (C, >50 and ≤100); IC50 [4, 9]: 50 to 100 nM; CDK2 Fold selectivity against CDK1 ([4]; Table 36): E (E, <20); IC50 [5, 10]: > 500 nM; CDK2 Fold selectivity against CDK9 ([5]; Table 36): B (B, >100 and ≤500); IC50 [7, 9]: 100 to 500 nM; CDK2 Fold selectivity against CDK4 ([7]; Table 36): C (C, >50 and ≤100)
C[C@H]1NC(=O)O[C@@H]2CC[C@@H](C2)c2n[nH]c(c2F)Nc2ccnc(c2)OCCC1(F)F [Compound 228, (1^1S,1^3R,9R,E)-2^4,8,8-trifluoro-9-methyl-2^1H-5,12-dioxa-3,10-diaza-4(4,2)-pyridina-2(3,5)-pyrazola-1(1,3)-cyclopentanacyclododecaphan-11-one]	50 to 250	50 to 250	> 1250	–
O=C1NC2CC(COc3cc(ccn3)Nc3cc(n[nH]3)C3C[C@@H](F)[C@H](C3)O1)C2 [Compound 229, (1^1R,1^3S,1^4R,7^1S,7^3R,Z)-1^4-fluoro-2^1H-5,10-dioxa-3,8-diaza-4(4,2)-pyridina-2(3,5)-pyrazola-1(1,3)-cyclopentana-7(1,3)-cyclobutanacyclodecaphan-9-one]	10 to 50	2 to 10	–	IC50 [1, 11]: ≤ 10 nM; IC50 [3, 11]: 10 to 50 nM; CDK2 Fold selectivity against CDK6 ([3]; Table 38): E (E, <20); IC50 [4, 11]: 10 to 50 nM; CDK2 Fold selectivity against CDK1 ([4]; Table 38): E (E, <20); IC50 ([5]; Table 37, recombinant CDK kinase, read-out: CDK9-CYCLINT1, IC50): 100 to 500 nM; CDK2 Fold selectivity against CDK9 ([5]; Table 38): C (C, >50 and ≤100); IC50 [7, 11]: 10 to 50 nM; CDK2 Fold selectivity against CDK4 ([7]; Table 38): E (E, <20)

Continued, in another order:

IC50 [2] [nM]	IC50 [6] [nM]	SMILES	IC50 [8] [nM]	also measured
50 to 250	10 to 50	C[C@@H]1CCCNC(=O)O[C@@H]2CC[C@@H](C2)c2cc(n[nH]2)Nc2ccnc(c2)O1 [compound 11]	> 1250	–
10 to 50	10 to 50	O=C1NC23CC(CCc4cc(cc(C(F)F)n4)Nc4cc([nH]n4)[C@H]4CC[C@H](C4)O1)(C2)C3 [compound 20]	> 1250	–
2 to 10	≤ 2	O=C1NC23CC(CCOc4cc(cc(C(F)F)n4)Nc4cc([nH]n4)[C@H]4CC[C@H](C4)O1)(C2)C3 [compound 23]	50 to 250	–
> 250	10 to 50	C[C@@H]1OCCCNC(=O)O[C@@H]2CC[C@@H](C2)c2cc([nH]n2)Nc2ccnc1c2 [compound 72]	> 1250	–
> 250	50 to 250	C[C@H]1CCC2(CC2)NC(=O)O[C@@H]2CC[C@@H](C2)c2cc([nH]n2)Nc2ccnc(c2)O1 [compound 110]	> 1250	–
